Measured values: patent US7919493B2, “Anititumoral ecteinascidin derivatives” (Pharma Mar, S.A., priority 2001, dated 2011)
In brackets after ≈: the same amount, converted by molar mass.

Legend:
Type in all cases: cell-based
[1] = system: A-549 (monolayer culture of a human lung carcinoma); test: Cytotoxic activity screening, A-549 cells; details: Homo sapiens, A549, 72 h, three days of incubation, Crystal Violet, approximate IC50
Protocol: (§1) Cell Cultures. Cells were maintained in logarithmic phase of growth in Eagle's Minimum Essential Medium, with Earle's Balanced Salts, with 2.0 mM L-glutamine, with non-essential amino acids, without sodium bicarbonate (EMEM/neaa); supplemented with 10% Fetal Calf Serum (FCS), 10^−2 M sodium bicarbonate and 0.1 g/l penicillin-G+streptomycin sulfate.
(§2) A separate set of cultures without drug was seeded as control growth to ensure that cells remained in exponential phase of growth. All determinations were carried out in duplicate. After three days of incubation at 37° C., 10% CO2 in a 98% humid atmosphere, the wells were stained with 0.1% Crystal Violet. An approximately IC50 was determined by comparing the growth in wells with drug to the growth in wells control.

[2] = system: P-388 (suspension culture of a lymphoid neoplasm from DBA/2 mouse); test: Cytotoxic activity screening, P-388 cells; details: Mus musculus, P388, 72 h, three days of incubation, approximate IC50 vs control growth
Protocol: as §1
(§3) A simple screening procedure has been carried out to determine and compare the antitumour activity of these compounds, using an adapted form of the method described by Bergeron et al (1984). The tumour cell line employed have been P-388 (suspension culture of a lymphoid neoplasm from DBA/2 mouse), A-549 (monolayer culture of a human lung carcinoma), HT-29 (monolayer culture of a human colon carcinoma) and MEL-28 (monolayer culture of a human melanoma).
P-388 cell were seeded into 16 mm wells at 1×10^4 cells per well in 1 ml aliquots of MEM 5FCS containing the indicated concentration of drug. A separate set of cultures without drug was seeded as control growth to ensure that cells remained in exponential phase of growth. All determinations were carried out in duplicate.

[3] = system: MEL-28 (monolayer culture of a human melanoma); test: Cytotoxic activity screening, MEL-28 cells; details: Homo sapiens, SK-MEL-28, 72 h, three days of incubation, Crystal Violet, approximate IC50
Protocol: as §1, §3
as §2, with “A-549, HT-29 and MEL-28 were seeded into 16 mm wells at 2×10^4 cells per well in 1 ml aliquots of MEM 10FCS containing the indicated concentration of drug. A separate” for “A separate”

[4] = system: HT-29 (monolayer culture of a human colon carcinoma); test: Cytotoxic activity screening, HT-29 cells; details: Homo sapiens, HT-29, 72 h, three days of incubation, Crystal Violet, approximate IC50
Protocol: as §1, §2

DU-145 = test: Cytotoxic activity screening, DU-145 cells; details: Homo sapiens, DU-145, DU-145 cells
Protocol: [The source words this procedure for another cell line and reports this cell line under the same test.] as §1, §3
Examples of biological activities of the compounds described in the present application are in Table IV (IC50 (ng/mL)) on the following pages.

Row | Structure (SMILES) | IC50 [1] | IC50 [2] | IC50 [3] | IC50 [4] | IC50 (DU-145)
1 | COc1c(C)cc2c(c1O)[C@@H]1C3[C@@H]4SC[C@H](NC(=O)CCC(=O)O)C(=O)OC[C@@H](c5c6c(c(C)c(OC(C)=O)c54)OCO6)N3[C@@H](C#N)[C@H](C2)N1C (stereo partly shown) [Compound 3l] | 100 ng/mL (≈ 138 nM) | 100 ng/mL (≈ 138 nM) | 100 ng/mL (≈ 138 nM) | 100 ng/mL (≈ 138 nM) | 100 ng/mL (≈ 138 nM)
2 | COc1c(C)cc2c(c1O)[C@@H]1C3[C@@H]4SC[C@H](N(C)C)C(=O)OC[C@@H](c5c6c(c(C)c(OC(C)=O)c54)OCO6)N3[C@@H](C#N)[C@H](C2)N1C (stereo partly shown) [Compound 3m] | 10 ng/mL (≈ 15.4 nM) | 10 ng/mL (≈ 15.4 nM) | 10 ng/mL (≈ 15.4 nM) | 10 ng/mL (≈ 15.4 nM) | 10 ng/mL (≈ 15.4 nM)
3 | COc1c(C)cc2c(c1O)[C@@H]1C3[C@@H]4SCC(NCc5ccccc5)C(=O)OC[C@@H](c5c6c(c(C)c(OC(C)=O)c54)OCO6)N3[C@@H](C#N)[C@H](C2)N1C (stereo partly shown) [Compound 3n] | 0.5 ng/mL (≈ 0.701 nM) | 0.5 ng/mL (≈ 0.701 nM) | 0.5 ng/mL (≈ 0.701 nM) | 0.5 ng/mL (≈ 0.701 nM) | 0.5 ng/mL (≈ 0.701 nM)
4 | CCCN[C@H]1CS[C@@H]2c3c(OC(C)=O)c(C)c4c(c3[C@H](COC1=O)N1C2[C@H]2c3c(cc(C)c(OC)c3O)C[C@@H]([C@@H]1C#N)N2C)OCO4 (stereo partly shown) [Compound 3o] | 5 ng/mL (≈ 7.52 nM) | – | – | 5 ng/mL (≈ 7.52 nM) | –
5 | COc1c(C)cc2c(c1O)[C@@H]1C3[C@@H]4SC[C@H](NC(=O)C(N)C(C)C)C(=O)OC[C@@H](c5c6c(c(C)c(OC(C)=O)c54)OCO6)N3[C@@H](C#N)[C@H](C2)N1C (stereo partly shown) [Compound 3p] | 1 ng/mL (≈ 1.39 nM) | 1 ng/mL (≈ 1.39 nM) | 1 ng/mL (≈ 1.39 nM) | 1 ng/mL (≈ 1.39 nM) | 1 ng/mL (≈ 1.39 nM)
6 | COc1c(C)cc2c(c1O)[C@@H]1C3[C@@H]4SC[C@H](NC(=O)C(NC(C)=O)C(C)C)C(=O)OC[C@@H](c5c6c(c(C)c(OC(C)=O)c54)OCO6)N3[C@@H](C#N)[C@H](C2)N1C (stereo partly shown) [Compound 3q] | 1 ng/mL (≈ 1.31 nM) | 1 ng/mL (≈ 1.31 nM) | 1 ng/mL (≈ 1.31 nM) | 1 ng/mL (≈ 1.31 nM) | 1 ng/mL (≈ 1.31 nM)
7 | CCCN[C@H]1CS[C@@H]2c3c(OC(C)=O)c(C)c4c(c3[C@H](COC1=O)N1C2[C@H]2c3c(cc(C)c(OC)c3O)C[C@@H]([C@@H]1O)N2C)OCO4 (stereo partly shown) [Compound 4o] | 1 ng/mL (≈ 1.52 nM) | – | – | 1 ng/mL (≈ 1.52 nM) | –
8 | COc1c(C)cc2c(c1O)[C@@H]1C3[C@@H]4SC[C@@H](O)C(=O)OC[C@@H](c5c6c(c(C)c(OC(C)=O)c54)OCO6)N3[C@@H](C#N)[C@H](C2)N1C (stereo partly shown) [Compound 16*] | 10 ng/mL (≈ 16 nM) | – | – | 10 ng/mL (≈ 16 nM) | –
9 | COc1c(C)cc2c(c1O)[C@@H]1C3[C@@H]4SC[C@H](OS(C)(=O)=O)C(=O)OC[C@@H](c5c6c(c(C)c(OC(C)=O)c54)OCO6)N3[C@@H](C#N)[C@H](C2)N1C (stereo partly shown) [Compound 17ll] | 1 ng/mL (≈ 1.42 nM) | 1 ng/mL (≈ 1.42 nM) | 1 ng/mL (≈ 1.42 nM) | 1 ng/mL (≈ 1.42 nM) | –
10 | CCCCCCCCCCCCCCCC(=O)O[C@H]1CS[C@@H]2c3c(OC(C)=O)c(C)c4c(c3[C@H](COC1=O)N1C2[C@H]2c3c(cc(C)c(OC)c3O)C[C@@H]([C@@H]1O)N2C)OCO4 (stereo partly shown) [Compound 21f] | > 1000 ng/mL | – | – | > 1000 ng/mL | –
11 | CC(=O)Oc1c(C)c2c(c3c1[C@H]1SC[C@H](N)C(=O)OC[C@@H]3N3C1[C@H]1c4c(cc(C)c(O)c4O)C[C@@H]([C@@H]3C#N)N1C)OCO2 (stereo partly shown) [Compound 24] | 100 ng/mL (≈ 164 nM) | – | – | 100 ng/mL (≈ 164 nM) | –
12 | COc1c(C)cc2c(c1O)[C@@H]1C3[C@@H]4SC[C@@H](NC(C)=O)C(=O)OC[C@@H](c5c6c(c(C)c(O)c54)OCO6)N3[C@@H](C#N)[C@H](C2)N1C (stereo partly shown) [Compound 25] | 10 ng/mL (≈ 16.1 nM) | – | – | 10 ng/mL (≈ 16.1 nM) | –
13 | CC(=O)N[C@@H]1CS[C@@H]2c3c(OC(C)=O)c(C)c4c(c3[C@H](COC1=O)N1C2[C@H]2c3c(cc(C)c(O)c3O)C[C@@H]([C@@H]1C#N)N2C)OCO4 (stereo partly shown) [Compound 26] | 100 ng/mL (≈ 154 nM) | – | – | 100 ng/mL (≈ 154 nM) | –
